Results on twelve molecules are retold here after ChEMBL document CHEMBL1201862, “PubChem BioAssay data set” (2004).

Among the test systems are IGROV-1; MDA-MB-231; 786-0; CCRF-CEM; UO-31; MDA-N; NCI-H226; Hs-578T; K562; NCI-H460; SK-OV-3; M14; TK-10; UACC-257; SK-MEL-2; OVCAR-3; SN12C; SF-295; RPMI-8226.
Assay in all cases: NCI tumour cell line growth inhibition, 48 h

The structures appear in SMILES notation.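 Cells were grown in 96-well plates and exposed to each compound for 48 hours at five concentrations; endpoints were interpolated linearly between bracketing concentrations, or set to the highest concentration if not reached. Here, GI50 denotes the concentration required for 50% inhibition of growth.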 Activity calls are given as the source filed them. Cut-off read from the data, not from the text of the source: active = GI50 up to about 1.1 µM and inactive = higher. Where only a bound is given, the exact number is not on record here.

For `O=C1c2c(Cl)c(Cl)c(Cl)c(Cl)c2C(=O)N1CCN(c1c(Cl)ssc1=O)c1c(Cl)ssc1=O`, the GI50 in the test on IGROV-1 was 46.2 µM (inactive); with MDA-MB-231, 36.1 µM (inactive); with 786-0 it was 18.2 µM (inactive); in the test on CCRF-CEM it was 4.36 µM (inactive); in the test with UO-31, 18.2 µM (inactive); in the test with MDA-N, 18.5 µM (inactive). Further, the GI50 is > 100 µM (inactive) in the test with NCI-H226; > 100 µM (inactive) in the test with Hs-578T; 20.7 µM (inactive) with K562; 32.1 µM (inactive) in the test with NCI-H460; > 100 µM (inactive) with SK-OV-3; 21.5 µM (inactive) in the test with M14. Moreover, the GI50 with TK-10 was 18.7 µM (inactive); in the test on UACC-257, 16.9 µM (inactive); with SK-MEL-2, 24.2 µM (inactive); in the test with OVCAR-3, 18.7 µM (inactive); in the test on SN12C, 23.4 µM (inactive); in the test on SF-295, > 100 µM (inactive).
For `Oc1ccc(NCc2cc(O)ccc2O)cc1`, the GI50 is 16.4 µM (inactive) with IGROV-1; 13.2 µM (inactive) in the test on MDA-MB-231; 15 µM (inactive) in the test with 786-0; 4.99 µM (inactive) with RPMI-8226; 14.1 µM (inactive) in the test with UO-31; 3.17 µM (inactive) in the test on MDA-N. Further, the GI50 is 18.9 µM (inactive) in the test on NCI-H226; 40.9 µM (inactive) in the test with Hs-578T; 19.2 µM (inactive) in the test on K562; 18.5 µM (inactive) in the test on NCI-H460; 17.8 µM (inactive) in the test with SK-OV-3; 17.8 µM (inactive) in the test with M14. The GI50 in the test on TK-10 is 16 µM (inactive); in the test with UACC-257, 14.9 µM (inactive); in the test on SK-MEL-2 it was 18.2 µM (inactive); with OVCAR-3, 17.3 µM (inactive); in the test on SN12C, 15.3 µM (inactive); with SF-295, 20.7 µM (inactive).
As for `CN(C)c1c(C2CC(O)C(CO)O2)c(=O)c1=O` (centres undefined), the GI50 in the test with IGROV-1, in the test on MDA-MB-231, in the test on 786-0, in the test with RPMI-8226, in the test on UO-31 and with MDA-N was > 100 µM (inactive) in each case. In addition, the GI50 is 77.1 µM (inactive) with NCI-H226; > 100 µM (inactive) with Hs-578T; > 100 µM (inactive) with K562; > 100 µM (inactive) with NCI-H460; > 100 µM (inactive) with SK-OV-3; > 100 µM (inactive) with M14. In addition, the GI50 with TK-10, with UACC-257, in the test on SK-MEL-2, in the test on OVCAR-3, in the test with SN12C and in the test on SF-295 was > 100 µM (inactive) in each case.
For the molecule `CC1(C)O[C@@H](CO)[C@H]([C@@]23OC[C@H]4OC(C)(C)OC4[C@@H]2OC(C)(C)O3)O1` (some centres undefined), the GI50 in the test with IGROV-1, with MDA-MB-231, with 786-0, in the test on RPMI-8226, with UO-31 and in the test with MDA-N was > 100 µM (inactive) each time. The GI50 in the test on NCI-H226, in the test on Hs-578T, in the test with K562, in the test on NCI-H460, with SK-OV-3 and in the test on M14 was > 100 µM (inactive) in each case. Also, the GI50 in the test with SK-MEL-2, in the test with OVCAR-3, with SN12C and with SF-295 was > 100 µM (inactive) in each case.
Regarding `COC(=O)c1c(C#N)[nH]c(-c2ccsc2)c1C(=O)OC`, the GI50 in the test on IGROV-1 is > 100 µM (inactive); with MDA-MB-231 it was > 100 µM (inactive); in the test on 786-0, > 100 µM (inactive); in the test with CCRF-CEM, > 100 µM (inactive); in the test on RPMI-8226, 40.4 µM (inactive); in the test with UO-31, 56.4 µM (inactive). Besides, the GI50 in the test on MDA-N was > 100 µM (inactive); with NCI-H226, > 100 µM (inactive); in the test on Hs-578T, > 100 µM (inactive); in the test with K562 it was 78 µM (inactive); with SK-OV-3, > 100 µM (inactive); in the test with M14, > 100 µM (inactive). Moreover, the GI50 with TK-10 is > 100 µM (inactive); in the test with UACC-257, 40.6 µM (inactive); in the test on SK-MEL-2 it was > 100 µM (inactive); with OVCAR-3 it was > 100 µM (inactive); in the test with SN12C, > 100 µM (inactive); in the test on SF-295, > 100 µM (inactive).
Take `CNC(=O)C1CCCN1C(=O)C(Cc1c[nH]cn1)NC(=O)C1CCC(=O)N1` (centres undefined): the GI50 is > 100 µM (inactive) in the test with IGROV-1; > 100 µM (inactive) with MDA-MB-231; 85.5 µM (inactive) with 786-0; > 100 µM (inactive) in the test with CCRF-CEM; > 100 µM (inactive) in the test with RPMI-8226; > 100 µM (inactive) in the test on UO-31. Further, the GI50 with MDA-N, in the test with NCI-H226, in the test on Hs-578T, in the test with K562, in the test with NCI-H460 and with SK-OV-3 was > 100 µM (inactive) each time. Further, the GI50 in the test on M14, in the test with TK-10, in the test on OVCAR-3, in the test on SN12C and in the test with SF-295 was > 100 µM (inactive) throughout.
Turning to `Cc1nnc(N)nc1/C=C/c1c(O)ccc2ccccc12`, the GI50 with IGROV-1 was 13.7 µM (inactive); in the test with MDA-MB-231, > 100 µM (inactive); with 786-0, 32.4 µM (inactive); in the test with CCRF-CEM it was 15.5 µM (inactive); in the test with RPMI-8226, 30.5 µM (inactive); in the test on UO-31, 18.8 µM (inactive). For the same molecule, the GI50 with MDA-N was 28.9 µM (inactive); with NCI-H226, 21.5 µM (inactive); with Hs-578T it was 26.2 µM (inactive); in the test with K562, 38.5 µM (inactive); in the test with NCI-H460, 24.5 µM (inactive); with SK-OV-3, 27.5 µM (inactive). Besides, the GI50 was 19.4 µM (inactive) in the test on M14; 54.8 µM (inactive) in the test on TK-10; 32.2 µM (inactive) with UACC-257; 15.2 µM (inactive) with SK-MEL-2; 37.5 µM (inactive) in the test on SN12C; 18.6 µM (inactive) in the test with SF-295.
Take `Nc1ccc(-c2nc3ccccc3s2)cc1F`: the GI50 is < 0.01 µM (active) with IGROV-1; 13.6 µM (inactive) with MDA-MB-231; 22.6 µM (inactive) in the test on 786-0; 5.47 µM (inactive) with CCRF-CEM; 14.2 µM (inactive) in the test on UO-31; 37.2 µM (inactive) in the test with MDA-N. In addition, the GI50 with NCI-H226 is < 0.01 µM (active); with Hs-578T, 29.1 µM (inactive); in the test with K562 it was 35.6 µM (inactive); with SK-OV-3, 38.5 µM (inactive); in the test on M14, 26.8 µM (inactive); in the test on UACC-257, 39.6 µM (inactive). Further, the GI50 was 19.2 µM (inactive) in the test with SK-MEL-2, 18.5 µM (inactive) in the test with OVCAR-3, 27.7 µM (inactive) with SN12C and 25.8 µM (inactive) with SF-295.
Take `O=C(Cc1ccccc1)NNc1nc(NNC(=O)c2ccncc2)nc(Nc2ccccc2)n1`: the GI50 was > 10 µM (inactive) in the test on IGROV-1; > 10 µM (inactive) in the test on MDA-MB-231; > 10 µM (inactive) in the test with 786-0; > 10 µM (inactive) with CCRF-CEM; > 10 µM (inactive) in the test with RPMI-8226; 1.12 µM (active) in the test on UO-31. For the same molecule, the GI50 in the test on MDA-N, in the test with Hs-578T, in the test with K562, in the test on NCI-H460, in the test on SK-OV-3 and with M14 was > 10 µM (inactive) throughout. In addition, the GI50 in the test on TK-10, in the test with UACC-257 and in the test on SN12C was > 10 µM (inactive) in each case.
Consider `C=C(C)[C@H]1CC(=O)/C(C)=C\CC/C(C)=C/CC[C@@]2(C)O[C@@H]2C1`, for which the GI50 is 29 µM (inactive) with IGROV-1; 34.2 µM (inactive) with MDA-MB-231; 47.5 µM (inactive) in the test with 786-0; 35.1 µM (inactive) in the test with CCRF-CEM; 20.7 µM (inactive) in the test on RPMI-8226; 20.7 µM (inactive) with UO-31. The GI50 with MDA-N was 35.2 µM (inactive); with Hs-578T it was 30.9 µM (inactive); in the test on K562, 28.4 µM (inactive); in the test on NCI-H460 it was 16.8 µM (inactive); in the test with SK-OV-3, 24.4 µM (inactive); in the test with M14 it was 32.5 µM (inactive). In addition, the GI50 is 31.9 µM (inactive) in the test with TK-10; 81.7 µM (inactive) in the test with UACC-257; 35.8 µM (inactive) in the test on SK-MEL-2; 17 µM (inactive) in the test with OVCAR-3; 20.8 µM (inactive) with SN12C; 34.3 µM (inactive) in the test on SF-295.
Consider `c1ccc(/N=c2/sc3ccccc3s/c2=N/c2ccccc2)cc1`, for which the GI50 in the test with IGROV-1 is 1.62 µM (inactive); in the test on MDA-MB-231, 2.21 µM (inactive); in the test with 786-0, 1.74 µM (inactive); in the test with CCRF-CEM it was > 100 µM (inactive); in the test with RPMI-8226, 4.57 µM (inactive); in the test on UO-31, 1.58 µM (inactive). Further, the GI50 is 1.61 µM (inactive) in the test on MDA-N; 2.88 µM (inactive) in the test on NCI-H226; 2.68 µM (inactive) in the test on Hs-578T; 3.78 µM (inactive) with K562; 1.96 µM (inactive) with NCI-H460; 2.81 µM (inactive) in the test on SK-OV-3. Further, the GI50 is 4.08 µM (inactive) in the test with TK-10; 3.72 µM (inactive) in the test on UACC-257; 1.86 µM (inactive) with SK-MEL-2; 1.75 µM (inactive) with SN12C; 3.76 µM (inactive) with SF-295.
As for `CC(C)(C)NCC(O)COc1cccc2[nH]c(C#N)cc12` (centres undefined) [CYANOPINDOLOL], the GI50 in the test with IGROV-1, in the test on MDA-MB-231, in the test on 786-0, in the test with RPMI-8226, in the test with UO-31 and in the test on MDA-N was > 100 µM (inactive) each time. In addition, the GI50 in the test on NCI-H226 was > 100 µM (inactive); in the test on Hs-578T, > 100 µM (inactive); with SK-OV-3, > 100 µM (inactive); in the test with M14 it was > 100 µM (inactive); in the test on TK-10 it was 84.5 µM (inactive); in the test on SK-MEL-2 it was > 100 µM (inactive). Further, the GI50 in the test on OVCAR-3, in the test on SN12C and in the test with SF-295 was > 100 µM (inactive) in each case.
